Data on 44 compounds can be found in patent US20230183248A1, “PYRROLO[1,2-D][1,2,4]TRIAZINE-2-YL-ACETAMIDES AS INHIBITORS OF THE NLRP3 INFLAMMASOME PATHWAY” (JANSSEN PHARMACEUTICA NV, priority 2020, published 2023).

pEC50, pIC50: −log10 of the molar value.

One assay relates to TNF. Description: PBMC assay: LPS-stimulated TNF cytokine levels. The following applies: human PBMCs, 30 min compound pre-incubation, 100 ng/ml LPS for 6 hrs, supernatant, MSD. The assay is classed as cell-based. The method, then: (§1) Peripheral venous blood was collected from healthy individuals and human peripheral blood mononuclear cells (PBMCs) were isolated from blood by Ficoll-Histopaque (Sigma-Aldrich, A0561) density gradient centrifugation. After isolation, PBMCs were stored in liquid nitrogen for later use. Upon thawing, PBMC cell viability was determined in growth medium (RPMI media supplemented with 10% fetal bovine serum, 1% Pen-Strep and 1% L-glutamine). Compounds were spotted in a 1:3 serial dilution in DMSO and diluted to the final concentration in 30 µl medium in 96 well plates (Falcon, 353072). PBMCs were added at a density of 7.5 × 10^4 cells per well and incubated for 30 min in a 5% CO2 incubator at 37° C. LPS stimulation was performed by addition of 100 ng/ml LPS (final concentration, Invivogen, tlrl-smlps) for 6 hrs followed by collection of cellular supernatant and the analysis of IL-1β […] and TNF cytokines levels (µM) via MSD technology according to manufacturers’ guidelines (MSD, K151A0H).
(§2) The IC50 values (for IL-1β) and EC50 values (TNF) were obtained on compounds of the invention/examples, and are depicted in the following table: […]

A further assay deals with IL-1β. Description: PBMC assay: LPS-stimulated IL-1β release. The class given is cell-based. The following applies: human PBMCs, 30 min compound pre-incubation, 100 ng/ml LPS for 6 hrs, supernatant, MSD. How it is done: as §1, §2

On to `CC(C)c1nn(CC(=O)Nc2ccncn2)c(=O)c2cc(Br)cn12` [Compound 1F, 2-(7-bromo-4-isopropyl-1-oxo-pyrrolo[1,2-d][1,2,4]triazin-2-yl)-N-pyrimidin-4-yl-acetamide], for which, in the assay on TNF (Homo sapiens, PBMC), the negative-log EC50 (pEC50) (usually −log10 of the EC50, conventionally taken in molar units) is less than 5.00. In addition, the pIC50 (commonly the IC50 on a negative log10 scale, so that one unit is a factor of ten) in the assay with IL-1β (Homo sapiens, PBMC) is 6.15.
`CC(C)c1nn(CC(=O)Nc2ccncc2F)c(=O)c2cc(Br)cn12` [Compound 2F]: the pEC50 in the assay with TNF is less than 5.00. Besides, the pIC50 in the assay on IL-1β was 5.90.
As for `COCc1cc2c(=O)n(CC(=O)Nc3ccncn3)nc(C(C)C)n2c1` [Compound 3F], the negative-log EC50 (pEC50) in the assay with TNF (Homo sapiens, PBMC) was less than 5.00. Besides, the pIC50 in the assay with IL-1β (Homo sapiens, PBMC) is 5.11.
The corresponding values for `CC(C)c1nn(CC(=O)Nc2ccncc2F)c(=O)c2cc(I)cn12` [Compound 4F, N-(3-fluoro-4-pyridyl)-2-(7-iodo-4-isopropyl-1-oxo-pyrrolo[1,2-d][1,2,4]triazin-2-yl)acetamide] are less than 5.00 and 6.60.
The compound `CC(C)c1nn(CC(=O)Nc2ccncn2)c(=O)c2cc(I)cn12` [Compound 5F, 2-(7-iodo-4-isopropyl-1-oxo-pyrrolo[1,2-d][1,2,4]triazin-2-yl)-N-pyrimidin-4-yl-acetamide] had a negative logarithm of the EC50 (pEC50) in the assay with TNF (Homo sapiens, PBMC) of less than 5.00.
In the assay with TNF (Homo sapiens, PBMC), `CC(C)c1nn(CC(=O)Nc2ccncn2)c(=O)c2cc(Cl)cn12` [Compound 6F] had a pEC50 of less than 5.00. In the assay on IL-1β (Homo sapiens, PBMC), this compound showed a pIC50 of 5.44.
Taken in the same sequence, the figures for `CC(C)c1nn(CC(=O)Nc2cccnc2)c(=O)c2cc(Br)cn12` [Compound 8F] were less than 5.00 and 5.37.
The compound `CC(C)c1nn(CC(=O)Nc2ccncc2F)c(=O)c2cc(Br)cn12` [Compound 10F] had a pEC50 in the assay with TNF (Homo sapiens, PBMC) of less than 5.00. The same compound gave a pIC50 in the assay with IL-1β (Homo sapiens, PBMC) of 6.05.
Taken in the same sequence, the figures for `CC(C)c1nn(CC(=O)Nc2ccncn2)c(=O)c2cccn12` [Compound 11F] were less than 5.00 and less than 5.00.
Taken in the same sequence, the figures for `CC(C)c1nn(CC(=O)Nc2ccncn2)c(=O)c2cc(CO)cn12` [Compound 12F] were less than 5.00 and 5.01.
Taken in the same sequence, the figures for `C=Cc1cc2c(=O)n(CC(=O)Nc3ccncn3)nc(C(C)C)n2c1` [Compound 17F] were less than 5.00 and 5.95.
Take `CC(C)c1cc2c(=O)n(CC(=O)Nc3ccncc3F)nc(C(C)C)n2c1` [Compound 18F]: the pEC50 in the assay on TNF (Homo sapiens, PBMC) is less than 5.00. Also, in the assay with IL-1β (Homo sapiens, PBMC), the pIC50 was 6.48.
Taken in the same sequence, the figures for `CC(C)c1cc2c(=O)n(CC(=O)Nc3ccncn3)nc(C(C)C)n2c1` [Compound 19F] were less than 5.00 and 6.46.
In the assay with TNF (Homo sapiens, PBMC), `CCc1nn(CC(=O)Nc2ccncn2)c(=O)c2cc(C3CC3)cn12` [Compound 20F] had a pEC50 of less than 5.00. Also, the pIC50 in the assay with IL-1β (Homo sapiens, PBMC) was 6.23.
Taken in the same sequence, the figures for `CCc1nn(CC(=O)Nc2ccncc2F)c(=O)c2cc(C3CC3)cn12` [Compound 21F] were less than 5.00 and 6.17.
Taken in the same sequence, the figures for `CCc1cc2c(=O)n(CC(=O)Nc3ccncn3)nc(C(C)C)n2c1` [Compound 23F] were less than 5.00 and 6.55.
The corresponding values for `CC(C)c1cc2c(=O)n(CC(=O)Nc3ccncn3)nc(N3CCOCC3)n2c1` [Compound 25F] are less than 5.00 and less than 5.00.
The compound `CC(C)c1nn(CC(=O)Nc2ccncn2)c(=O)c2cc(C3CCC3)cn12` [Compound 30F, 2-(7-cyclobutyl-4-isopropyl-1-oxo-pyrrolo[1,2-d][1,2,4]triazin-2-yl)-N-pyrimidin-4-yl-acetamide] had a pEC50 in the assay with TNF (Homo sapiens, PBMC) of less than 5.00. The compound further gave a pIC50 in the assay with IL-1β (Homo sapiens, PBMC) of 6.00.
In turn, `COC(C)c1nn(CC(=O)Nc2ccncn2)c(=O)c2cc(C(C)C)cn12` (stereo not drawn) [Compound 31F, 2-[7-isopropyl-4-(1-methoxyethyl)-1-oxo-pyrrolo[1,2-d][1,2,4]triazin-2-yl]-N-pyrimidin-4-yl-acetamide] had a pEC50 in the assay on TNF (Homo sapiens, PBMC) of less than 5.00. This compound gave a pIC50 with IL-1β (Homo sapiens, PBMC) of 5.29.
`CC(C)c1nn(CC(=O)Nc2ccncc2F)c(=O)c2cc(C(F)(F)F)cn12` [Compound 32F, N-(3-fluoro-4-pyridyl)-2-[4-isopropyl-1-oxo-7-(trifluoromethyl)pyrrolo[1,2-d][1,2,4]triazin-2-yl]acetamide] had a negative logarithm of the EC50 (pEC50) in the assay on TNF (Homo sapiens, PBMC) of less than 5.00. This compound also gave a negative-log IC50 (pIC50) in the assay with IL-1β (Homo sapiens, PBMC) of 5.82.
Taken in the same sequence, the figures for `CC(C)c1nn(CC(=O)Nc2ccncn2)c(=O)c2cc(CCC(F)(F)F)cn12` [Compound 33F, 2-[4-isopropyl-1-oxo-7-(3,3,3-trifluoropropyl)pyrrolo[1,2-d][1,2,4]triazin-2-yl]-N-pyrimidin-4-yl-acetamide] were less than 5.00 and 5.44.
Taken in the same sequence, the figures for `CC(C)Cc1cc2c(=O)n(CC(=O)Nc3ccncn3)nc(C(C)C)n2c1` [Compound 34F, 2-(7-isobutyl-4-isopropyl-1-oxo-pyrrolo[1,2-d][1,2,4]triazin-2-yl)-N-pyrimidin-4-yl-acetamide] were less than 5.00 and 5.42.
Taken in the same sequence, the figures for `CC(C)c1cc2c(=O)n(CC(=O)Nc3ccncn3)nc(C(C)(C)O)n2c1` [Compound 37F, 2-[4-(1-hydroxy-1-methyl-ethyl)-7-isopropyl-1-oxo-pyrrolo[1,2-d][1,2,4]triazin-2-yl]-N-pyrimidin-4-yl-acetamide] were less than 5.00 and 5.37.
For the compound `CC(C)c1nn(CC(=O)Nc2ccncn2)c(=O)c2cc(C(C)F)cn12` (stereo not drawn) [Compound 39F, 2-[7-(1-fluoroethyl)-4-isopropyl-1-oxo-pyrrolo[1,2-d][1,2,4]triazin-2-yl]-N-pyrimidin-4-yl-acetamide], in the assay on TNF (Homo sapiens, PBMC), the negative-log EC50 (pEC50) was less than 5.00. In the assay on IL-1β (Homo sapiens, PBMC), this compound showed a pIC50 of 5.37.
The corresponding values for `CCOC(C)c1nn(CC(=O)Nc2ccncn2)c(=O)c2cc(C(C)C)cn12` (stereo not drawn) [Compound 40F] are less than 5.00 and 5.09.
Taken in the same sequence, the figures for `CC(C)c1nn(CC(=O)Nc2ccncn2)c(=O)c2cc(C#N)cn12` [Compound 42F] were less than 5.00 and less than 5.00.
The corresponding values for `CC(C)c1nn(CC(=O)Nc2ccncn2)c(=O)c2cc(CN(C)C)cn12` [Compound 43F, 2-(7-((dimethylamino)methyl)-4-isopropyl-1-oxopyrrolo[1,2-d][1,2,4]triazin-2(1H)-yl)-N-(pyrimidin-4-yl)acetamide] are less than 5.00 and less than 5.00.
In the assay on TNF (Homo sapiens, PBMC), `CNCc1cc2c(=O)n(CC(=O)Nc3ccncn3)nc(C(C)C)n2c1` [Compound 44F] showed a negative-log EC50 (pEC50) of less than 5.00. The negative-log IC50 (pIC50) with IL-1β (Homo sapiens, PBMC) was less than 5.00.
In turn, `CC(C)c1cc2c(=O)n(CC(=O)Nc3ccncn3)nc(C3CNC3)n2c1` [Compound 45F] showed a negative-log EC50 (pEC50) with TNF (Homo sapiens, PBMC) of less than 5.00. This compound gave a pIC50 in the assay on IL-1β (Homo sapiens, PBMC) of less than 5.00.
In the assay with TNF (Homo sapiens, PBMC), `CC(=O)N1CC(c2nn(CC(=O)Nc3ccncn3)c(=O)c3cc(C(C)C)cn23)C1` [Compound 46F] gave a pEC50 of less than 5.00. This compound had a negative logarithm of the IC50 (pIC50) in the assay on IL-1β (Homo sapiens, PBMC) of less than 5.00.
For the compound `CC(C)c1nn(CC(=O)Nc2ccncc2F)c(=O)c2cc(F)cn12` [Compound 52F], in the assay on TNF (Homo sapiens, PBMC), the pEC50 was less than 5.00. In addition, the pIC50 with IL-1β (Homo sapiens, PBMC) was less than 5.00.
As for `COc1nn(CC(=O)Nc2ccncn2)c(=O)c2cc(C(C)C)cn12` [Compound 53F], the negative-log EC50 (pEC50) in the assay on TNF (Homo sapiens, PBMC) is less than 5.00. Also, the pIC50 in the assay on IL-1β (Homo sapiens, PBMC) was 5.86; with IL-1β, 5.73.
As to `CCCc1cc2c(=O)n(CC(=O)Nc3ccncn3)nc(OC)n2c1` [Compound 54F], the negative logarithm of the EC50 (pEC50) in the assay on TNF (Homo sapiens, PBMC) is less than 5.00. For the same compound, the pIC50 in the assay with IL-1β (Homo sapiens, PBMC) is 5.60.
Taken in the same sequence, the figures for `CC(C)c1cc2c(=O)n(CC(=O)Nc3ccncn3)nc(N(C)CC3CC3)n2c1` [Compound 57F] were less than 5.00 and 5.78.
The corresponding values for `CCCCc1nn(CC(=O)N[C@H]2C[C@@](C)(O)C2)c(=O)c2cc(C(C)C)cn12` [Compound 60F] are less than 5.00 and 5.83.
In the assay with TNF (Homo sapiens, PBMC), `CC(C)c1cc2c(=O)n(CC(=O)N[C@H]3C[C@@](C)(O)C3)nc(C(C)OC3CC3)n2c1` (stereo partly drawn) [Compound 62F] gave a pEC50 of less than 5.00. The compound also had a pIC50 in the assay on IL-1β (Homo sapiens, PBMC) of 5.65.
The corresponding values for `COc1nn(CC(=O)NC2CCOCC2)c(=O)c2cc(C(C)C)cn12` [Compound 66F] are less than 5.00 and 5.30.
In turn, `CC(C)c1cc2c(=O)n(CC(=O)N[C@@H]3CCCN(C4CCC4)C3)nc(C(C)C)n2c1` [Compound 67F] showed a pEC50 in the assay on TNF (Homo sapiens, PBMC) of less than 5.00.
The compound `CC(C)c1cc2c(=O)n(CC(=O)Nc3ccc4nncn4c3)nc(C(C)C)n2c1` [Compound 69F] gave a pIC50 with IL-1β (Homo sapiens, PBMC) of 6.55.
Take `CC(=O)N(C)Cc1cc2c(=O)n(CC(=O)Nc3ccncn3)nc(C(C)C)n2c1` [Compound 70F, N-((4-isopropyl-1-oxo-2-(2-oxo-2-(pyrimidin-4-ylamino)ethyl)-1,2-dihydropyrrolo[1,2-d][1,2,4]triazin-7-yl)methyl)-N-methylacetamide]: the pEC50 in the assay with TNF (Homo sapiens, PBMC) was less than 5.00. In the assay on IL-1β (Homo sapiens, PBMC), this compound showed a pIC50 of less than 5.00.
For `CC(C)c1nn(CC(=O)Nc2ccc3nncn3c2)c(=O)c2cc(I)cn12` [Compound 71F], the negative-log EC50 (pEC50) with TNF (Homo sapiens, PBMC) is 4.70; in the assay on TNF, less than 5.00. The pIC50 is 6.85 in the assay with IL-1β (Homo sapiens, PBMC) and 6.59 in the assay with IL-1β.
In the assay on TNF (Homo sapiens, PBMC), `CC(C)c1nn(CC(=O)N[C@H]2C[C@@](C)(O)C2)c(=O)c2cc(I)cn12` [Compound 72F] showed a pEC50 of less than 5.00. Moreover, the pIC50 in the assay with IL-1β (Homo sapiens, PBMC) was 6.62.
Taken in the same sequence, the figures for `CC(C)c1nn(CC(=O)Nc2ccncn2)c(=O)c2cc(Cc3ccccc3)cn12` [Compound 75F] were less than 5.00 and less than 5.00.
Turning to `CC(C)c1nn(CC(=O)Nc2ccncn2)c(=O)c2cc(CC3CC(=O)N(C)C3)cn12` (stereo not drawn) [Compound 81F], in the assay on IL-1β (Homo sapiens, PBMC), the pIC50 was less than 5.00.
